Source: US20210068395A1, “METHODS OF APPLYING ONE OR MORE CERTAIN HETEROARYL-1,2,4-TRIAZOLE AND HETEROARYL-TETRAZOLE COMPOUNDS TO CONTROL DAMAGE ON PLANTS, PROPAGATION MATERIAL THEREOF, AND PLANT DERIVED PRODUCTS” (SYNGENTA CROP PROTECTION AG, priority 2018, published 2021)

Legend:
Type in all cases: in vivo
[1] = tested on: Frankliniella occidentalis (Western Flower Thrips); assay: Frankliniella occidentalis feeding/contact activity; settings: foliar, 168 h, application rate 200 ppm, mixed ages on sunflower leaf discs, 7 days after infestation
Procedure: Sunflower leaf discs were placed on agar in 24-well microtiter plates and sprayed with aqueous test solutions prepared from 10,000 DMSO stock solutions. After drying the leaf discs were infested with a Frankliniella population of mixed ages. The samples were assessed for mortality 7 days after infestation.

[2] = tested on: Diabrotica balteata (corn root worm); assay: Diabrotica balteata (corn root worm), sprayed maize sprouts; settings: 96 h, application rate 200 ppm, L2 larvae, 4 days after infestation, read-out: control in at least one of the two categories (mortality or growth inhibition)
Procedure: Maize sprouts placed onto an agar layer in 24-well microtiter plates were treated with aqueous test solutions prepared from 10,000 ppm DMSO stock solutions by spraying. After drying, the plates were infested with L2 larvae (6 to 8 per well). The samples were assessed for mortality and growth inhibition in comparison to untreated samples 4 days after infestation.

[3] = tested on: Myzus persicae (Green Peach Aphid); assay: Myzus persicae feeding/contact activity; settings: foliar, 144 h, application rate 200 ppm, sunflower leaf discs sprayed, 6 days after infestation
Procedure: Sunflower leaf discs were placed onto agar in a 24-well microtiter plate and sprayed with aqueous test solutions prepared from 10,000 ppm DMSO stock solutions. After drying, the leaf discs were infested with an aphid population of mixed ages. The samples were assessed for mortality 6 days after infestation.

[4] = tested on: Spodoptera littoralis (Egyptian Cotton Leaf Worm); assay: Spodoptera littoralis systemic activity (lettuce); settings: 144 h, test rate 12.5 ppm, root uptake in lettuce, 6 days after infestation, read-out: control in at least one of the three categories (mortality or growth inhibition or anti-feeding)
Description: Test compounds were applied by pipette prepared from 10,000 ppm DMSO stock solutions into 24-well plates and mixed with agar. Lettuce seeds were placed onto the agar and the multi well plate was closed by another plate which contained also agar. After 7 days the compound was absorbed by the roots and the lettuce grew into the lid plate. The lettuce leaves were then cut off into the lid plate. Spodoptera eggs were pipetted through a plastic stencil onto a humid gel blotting paper and the lid plate was closed with it. The samples were assessed for mortality, anti-feeding and growth inhibition 6 days after infestation.

[5] = tested on: Aphis craccivora (Black Bean Aphid); assay: Aphis craccivora mixed population, contact/feeding; settings: 120 h, test rate 200 ppm, pea seedlings sprayed, 5 days after treatment
Procedure: Pea seedlings infested with mixed aged aphid population were treated with diluted test solutions in a spray chamber. 5 days after treatment, samples were assessed for mortality.

[6] = tested on: Nilaparvata lugens (Brown Plant Hopper); assay: Nilaparvata lugens larvicide, feeding/contact; settings: 168 h, test rate 200 ppm, N3 nymphs on sprayed rice plants, 7 days after treatment, read-out: control in at least one of the two categories (mortality or growth inhibition)
Procedure: Rice plants were treated with the diluted test solutions in a spray chamber. After drying plants were infested with ˜20 N3 nymphs. 7 days after the treatment samples were assessed for mortality and growth inhibition.

[7] = tested on: Aphis craccivora (Black Bean Aphid); assay: Aphis craccivora mixed population, systemic/feeding; settings: 120 h, test rate 12.5 ppm, pea seedlings in test solutions, 5 days
Procedure: Pea seedlings infested with mixed aged aphid population, were put into glass vials with test solutions. 5 days later, samples were assessed for mortality.

[8] = tested on: Euschistus heros (Neotropical Brown Stink Bug); assay: Euschistus heros feeding/contact activity; settings: 120 h, application rate 200 ppm, N2 nymphs on soybean leaves, 5 days after infestation, read-out: control in at least one of the two categories (mortality or growth inhibition)
Procedure: Soybean leaves on agar in 24-well microtiter plates were sprayed with aqueous test solutions prepared from 10,000 ppm DMSO stock solutions. After drying the leaves were infested with N2 nymphs. The samples were assessed for mortality and growth inhibition 5 days after infestation.

[9] = tested on: Nilaparvata lugens (Brown Plant Hopper); assay: Nilaparvata lugens larvicide, systemic into water; settings: 168 h, test rate 12.5 ppm, into nutritive solution of rice plants, N3 nymphs, 7 days after infestation, read-out: control in at least one of the two categories (mortality or growth inhibition)
Procedure: Rice plants cultivated in a nutritive solution were treated with the diluted test solutions into nourishing cultivation system. 1 day after application plants were infested with ˜20 N3 nymphs. 7 days after infestation samples were assessed for mortality and growth inhibition.

[10] = tested on: Thrips tabaci (Onion thrips); assay: Thrips tabaci feeding/contact activity; settings: foliar, 144 h, application rate 200 ppm, sunflower leaf discs, 6 days after infestation, read-out: control in at least one of the two categories (mortality or anti-feeding)
Procedure: Sunflower leaf discs were placed on agar in 24-well microtiter plates and sprayed with aqueous test solutions prepared from 10,000 ppm DMSO stock solutions. After drying the leaf discs were infested with a thrips population of mixed ages. The samples were assessed for mortality, and anti-feeding 6 days after infestation.

[11] = tested on: Myzus persicae (Green Peach Aphid); assay: Myzus persicae feeding activity (sucrose solution, Parafilm); settings: 120 h, test rate 12.5 ppm, in sucrose solution, 5 days after infestation
[12] = tested on: Plutella xylostella (Diamond Back Moth); assay: Plutella xylostella feeding/contact activity, 96-well artificial diet; settings: 216 h, application rate 500 ppm, 9 days after infestation
[13] = tested on: Plutella xylostella (Diamond Back Moth); assay: Plutella xylostella feeding/contact activity, 24-well artificial diet; settings: 192 h, application rate 200 ppm, 24-well artificial diet, 8 days after infestation, read-out: control in at least one of the two categories (mortality or growth inhibition)
Procedure: 24-well microtiter plates with artificial diet were treated with aqueous test solutions prepared from 10,000 ppm DMSO stock solutions by pipetting. After drying, Plutella eggs were pipetted through a plastic stencil onto a gel blotting paper and the plate was closed with it. The samples were assessed for mortality and growth inhibition in comparison to untreated samples 8 days after infestation.

[14] = tested on: Carpocapsa (Cydia) Pomonella (Codling Moth); assay: Carpocapsa (Cydia) pomonella larvicide, feeding/contact; settings: 336 h, test rate 50 ppm, L1 larvae on diet cubes, 14 days after infestation, read-out: control in at least one of the two categories (mortality or growth inhibition)
Procedure: Diet cubes coated with paraffin were sprayed with diluted test solutions in an application chamber. After drying off the treated cubes (10 replicates) were infested with 1 L1 larvae. Samples were incubated at 26-27° C. and checked 14 days after infestation for mortality and growth inhibition.

CC(c1ncnn1-c1ncccn1)N(C)C(=O)c1cc(C(F)(F)F)cc(C(F)(F)F)c1 (stereo not drawn) [Compound 1]
≥ 80%: mortality at 200 ppm [1] | percent control (mortality or growth inhibition) at 200 ppm [2] | mortality at 200 ppm [3] | percent control (mortality, anti-feedant effect or growth inhibition) at 12.5 ppm [4] | mortality at 200 ppm [5] | percent control (mortality or growth inhibition) at 200 ppm [6] | mortality at 12.5 ppm [7] | percent control (mortality or growth inhibition) at 200 ppm [8] | percent control (mortality or growth inhibition) at 12.5 ppm [9] | percent control (mortality, anti-feedant effect or growth inhibition) at 200 ppm [10] | mortality at 12.5 ppm [11] | mortality at 500 ppm [12] | percent control (mortality or growth inhibition) at 200 ppm [13] | percent control (mortality or growth inhibition) at 50 ppm [14]

CC(c1ncnn1-c1ncccn1)N(CC1CC1)C(=O)c1cc(C(F)(F)F)cc(C(F)(F)F)c1 (stereo not drawn) [Compound 3]
≥ 80%: mortality at 200 ppm [1] | percent control (mortality or growth inhibition) at 200 ppm [2] | mortality at 200 ppm [3] | percent control (mortality, anti-feedant effect or growth inhibition) at 12.5 ppm [4] | mortality at 200 ppm [5] | percent control (mortality or growth inhibition) at 200 ppm [6] | mortality at 12.5 ppm [7] | percent control (mortality or growth inhibition) at 200 ppm [8] | percent control (mortality or growth inhibition) at 12.5 ppm [9] | percent control (mortality, anti-feedant effect or growth inhibition) at 200 ppm [10] | mortality at 12.5 ppm [11] | mortality at 500 ppm [12] | percent control (mortality or growth inhibition) at 200 ppm [13] | percent control (mortality or growth inhibition) at 50 ppm [14]

CC(NC(=O)c1cc(C(F)(F)F)cc(C(F)(F)F)c1)c1ncnn1-c1ncccn1 (stereo not drawn) [Compound 4]
≥ 80%: mortality at 200 ppm [1] | percent control (mortality or growth inhibition) at 200 ppm [2] | mortality at 200 ppm [3] | percent control (mortality, anti-feedant effect or growth inhibition) at 12.5 ppm [4] | mortality at 200 ppm [5] | percent control (mortality or growth inhibition) at 200 ppm [6] | mortality at 12.5 ppm [7] | percent control (mortality or growth inhibition) at 200 ppm [8] | percent control (mortality or growth inhibition) at 12.5 ppm [9] | percent control (mortality, anti-feedant effect or growth inhibition) at 200 ppm [10] | mortality at 12.5 ppm [11] | mortality at 500 ppm [12] | percent control (mortality or growth inhibition) at 200 ppm [13] | percent control (mortality or growth inhibition) at 50 ppm [14]
